Laboratory results reported in PubChem BioAssay AID1963829 (Molecular Pharmacology Branch, DTP, NCI, 2024).

System: 935938-334-R-J1-PDC complex spheroid viability
Assay: Anticancer human tumor 935938-334-R-J1-PDC patient-derived small intestine adenocarcinoma cell line growth inhibition [POLQ]
Conditions: for IC50: curve of first compound; for viability, T/C: stronger effect = lower value; active = viability on the fitted dose curve at most 10% of control; inactive = the rest
How it was run: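 Growth inhibition in 3D: complex spheroids (tumor PDC, HUVEC, MSC) treated with POLQ inhibitor combinations; where Cmax unknown, highest tested concentration 10 microM, except SN-38 at 1 microM.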

[1] = second compound 0.0316 µM, first compound 0.0316 µM
[2] = second compound 0.0316 µM, first compound 0.1 µM
[3] = second compound 0.1 µM, first compound 0.0316 µM
[4] = second compound 0.1 µM, first compound 0.1 µM
[5] = second compound 0.316 µM, first compound 0.0316 µM
[6] = second compound 0.316 µM, first compound 0.1 µM
[7] = second compound 1 µM, first compound 0.0316 µM
[8] = second compound 1 µM, first compound 0.1 µM
[9] = second compound 3.16 µM, first compound 0.0316 µM
[10] = second compound 3.16 µM, first compound 0.1 µM
[11] = second compound 10 µM, first compound 0.0316 µM
[12] = second compound 10 µM, first compound 0.1 µM
[13] = second compound 0.0316 µM, first compound 0.316 µM
[14] = second compound 0.0316 µM, first compound 1 µM
[15] = second compound 0.0316 µM, first compound 3.16 µM
[16] = second compound 0.0316 µM, first compound 10 µM
[17] = second compound 0.1 µM, first compound 0.316 µM
[18] = second compound 0.1 µM, first compound 1 µM
[19] = second compound 0.1 µM, first compound 3.16 µM
[20] = second compound 0.1 µM, first compound 10 µM
[21] = second compound 0.316 µM, first compound 0.316 µM
[22] = second compound 0.316 µM, first compound 1 µM
[23] = second compound 0.316 µM, first compound 3.16 µM
[24] = second compound 0.316 µM, first compound 10 µM
[25] = second compound 1 µM, first compound 0.316 µM
[26] = second compound 1 µM, first compound 1 µM
[27] = second compound 1 µM, first compound 3.16 µM
[28] = second compound 1 µM, first compound 10 µM
[29] = second compound 3.16 µM, first compound 0.316 µM
[30] = second compound 3.16 µM, first compound 1 µM
[31] = second compound 3.16 µM, first compound 3.16 µM
[32] = second compound 3.16 µM, first compound 10 µM
[33] = second compound 10 µM, first compound 0.316 µM
[34] = second compound 10 µM, first compound 1 µM
[35] = second compound 10 µM, first compound 3.16 µM
[36] = second compound 10 µM, first compound 10 µM
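Note: spheroids exposed to drugs for seven days before viability read.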
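Throughout, for viability, T/C: 100% = DMSO vehicle control wells.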

Cn1ncnc1[C@H]1c2n[nH]c(=O)c3cc(F)cc(c23)N[C@@H]1c1ccc(F)cc1 + Cc1cccc(N(C)C(=O)C2C(O)CCN2c2nc(C)cc(C(F)(F)F)c2C#N)c1
> 100 nM: IC50 (second compound 0.0316 µM) | IC50 (second compound 0.1 µM) | IC50 (second compound 0.316 µM) | IC50 (second compound 1 µM) | IC50 (second compound 3.16 µM) | IC50 (second compound 10 µM)
inactive: viability, T/C (second compound 0.0316 µM, first compound 0.000316 µM) 143% | viability, T/C (second compound 0.0316 µM, first compound 0.001 µM) 88.6% | viability, T/C (second compound 0.0316 µM, first compound 0.00316 µM) 102% | viability, T/C (second compound 0.0316 µM, first compound 0.01 µM) 94.5% | viability, T/C [1] 97.8% | viability, T/C [2] 102% | viability, T/C (second compound 0.1 µM, first compound 0.000316 µM) 85.5% | viability, T/C (second compound 0.1 µM, first compound 0.001 µM) 91.3% | viability, T/C (second compound 0.1 µM, first compound 0.00316 µM) 107% | viability, T/C (second compound 0.1 µM, first compound 0.01 µM) 143% | viability, T/C [3] 111% | viability, T/C [4] 70% | viability, T/C (second compound 0.316 µM, first compound 0.000316 µM) 108% | viability, T/C (second compound 0.316 µM, first compound 0.001 µM) 107% | viability, T/C (second compound 0.316 µM, first compound 0.00316 µM) 80.5% | viability, T/C (second compound 0.316 µM, first compound 0.01 µM) 108% | viability, T/C [5] 91% | viability, T/C [6] 83.4% | viability, T/C (second compound 1 µM, first compound 0.000316 µM) 89.8% | viability, T/C (second compound 1 µM, first compound 0.001 µM) 99.6% | viability, T/C (second compound 1 µM, first compound 0.00316 µM) 97.7% | viability, T/C (second compound 1 µM, first compound 0.01 µM) 82.1% | viability, T/C [7] 114% | viability, T/C [8] 60.4% | viability, T/C (second compound 3.16 µM, first compound 0.000316 µM) 125% | viability, T/C (second compound 3.16 µM, first compound 0.001 µM) 80.8% | viability, T/C (second compound 3.16 µM, first compound 0.00316 µM) 105% | viability, T/C (second compound 3.16 µM, first compound 0.01 µM) 88.5% | viability, T/C [9] 89.9% | viability, T/C [10] 89.6% | viability, T/C (second compound 10 µM, first compound 0.000316 µM) 103% | viability, T/C (second compound 10 µM, first compound 0.001 µM) 87.5% | viability, T/C (second compound 10 µM, first compound 0.00316 µM) 77.6% | viability, T/C (second compound 10 µM, first compound 0.01 µM) 118% | viability, T/C [11] 87.9% | viability, T/C [12] 89%

CC1COCCN1c1cc(C2(S(C)(=N)=O)CC2)nc(-c2ccnc3[nH]ccc23)n1 (stereo not drawn) + Cc1cccc(N(C)C(=O)C2C(O)CCN2c2nc(C)cc(C(F)(F)F)c2C#N)c1
inactive: viability, T/C [1] 116% | viability, T/C [2] 91.8% | viability, T/C [13] 91.4% | viability, T/C [14] 96.2% | viability, T/C [15] 46.1% | viability, T/C [16] 21.4% | viability, T/C [3] 113% | viability, T/C [4] 109% | viability, T/C [17] 86.1% | viability, T/C [18] 84.5% | viability, T/C [19] 44.6% | viability, T/C [20] 20.2% | viability, T/C [5] 82.6% | viability, T/C [6] 110% | viability, T/C [21] 69.1% | viability, T/C [22] 88.1% | viability, T/C [23] 38.9% | viability, T/C [24] 19.9% | viability, T/C [7] 110% | viability, T/C [8] 89% | viability, T/C [25] 97.6% | viability, T/C [26] 70.1% | viability, T/C [27] 44.4% | viability, T/C [28] 21.8% | viability, T/C [9] 97.7% | viability, T/C [10] 112% | viability, T/C [29] 72.3% | viability, T/C [30] 62.9% | viability, T/C [31] 36.4% | viability, T/C [32] 23.5% | viability, T/C [11] 116% | viability, T/C [12] 104% | viability, T/C [33] 117% | viability, T/C [34] 68% | viability, T/C [35] 41.2% | viability, T/C [36] 20.1%
1570 nM: IC50 (second compound 3.16 µM)
2520 nM: IC50 (second compound 1 µM)
2440 nM: IC50 (second compound 0.316 µM)
2000 nM: IC50 (second compound 10 µM)
2890 nM: IC50 (second compound 0.0316 µM)
3050 nM: IC50 (second compound 0.1 µM)

CNCc1ccc(-c2[nH]c3cc(F)cc4c3c2CCNC4=O)cc1 + COC1C(OC(N)=O)C(O)C(Oc2ccc3c(O)c(NC(=O)c4ccc(O)c(CC=C(C)C)c4)c(=O)oc3c2C)OC1(C)C
> 10000 nM: IC50 (second compound 0.0316 µM) | IC50 (second compound 0.1 µM) | IC50 (second compound 0.316 µM) | IC50 (second compound 1 µM) | IC50 (second compound 3.16 µM) | IC50 (second compound 10 µM)
inactive: viability, T/C [1] 124% | viability, T/C [2] 97.1% | viability, T/C [13] 87.9% | viability, T/C [14] 87.4% | viability, T/C [15] 75.4% | viability, T/C [16] 83.4% | viability, T/C [3] 79.9% | viability, T/C [4] 111% | viability, T/C [17] 94.9% | viability, T/C [18] 87.6% | viability, T/C [19] 98.5% | viability, T/C [20] 96.7% | viability, T/C [5] 115% | viability, T/C [6] 108% | viability, T/C [21] 94.9% | viability, T/C [22] 92.3% | viability, T/C [23] 84% | viability, T/C [24] 87.8% | viability, T/C [7] 92.6% | viability, T/C [8] 105% | viability, T/C [25] 113% | viability, T/C [26] 105% | viability, T/C [27] 98.8% | viability, T/C [28] 92.9% | viability, T/C [9] 87.5% | viability, T/C [10] 100% | viability, T/C [29] 70.7% | viability, T/C [30] 75.2% | viability, T/C [31] 94% | viability, T/C [32] 99.2% | viability, T/C [11] 95.7% | viability, T/C [12] 113% | viability, T/C [33] 82.9% | viability, T/C [34] 94.4% | viability, T/C [35] 117% | viability, T/C [36] 88.7%

Nc1ccn(C2OC(CO)C(O)C2(F)F)c(=O)n1 (stereo not drawn) + COC1C(OC(N)=O)C(O)C(Oc2ccc3c(O)c(NC(=O)c4ccc(O)c(CC=C(C)C)c4)c(=O)oc3c2C)OC1(C)C
inactive: viability, T/C [1] 25.5% | viability, T/C [2] 22.1% | viability, T/C [13] 18.8% | viability, T/C [14] 15% | viability, T/C [15] 14.9% | viability, T/C [16] 14.1% | viability, T/C [3] 30.7% | viability, T/C [4] 18.8% | viability, T/C [17] 17.8% | viability, T/C [18] 16.9% | viability, T/C [19] 16.9% | viability, T/C [20] 14.5% | viability, T/C [5] 32.2% | viability, T/C [6] 22.6% | viability, T/C [21] 17.7% | viability, T/C [22] 17.7% | viability, T/C [23] 16.3% | viability, T/C [24] 14.6% | viability, T/C [7] 28.5% | viability, T/C [8] 23.4% | viability, T/C [25] 20.2% | viability, T/C [26] 13.6% | viability, T/C [27] 18.1% | viability, T/C [28] 16.5% | viability, T/C [9] 26.1% | viability, T/C [10] 25.7% | viability, T/C [29] 21.7% | viability, T/C [30] 16.4% | viability, T/C [31] 16.7% | viability, T/C [32] 14.9% | viability, T/C [11] 28.8% | viability, T/C [12] 23.6% | viability, T/C [33] 18.6% | viability, T/C [34] 14.4% | viability, T/C [35] 16.8% | viability, T/C [36] 17.9%
< 31.6 nM: IC50 (second compound 0.0316 µM) | IC50 (second compound 0.1 µM) | IC50 (second compound 0.316 µM) | IC50 (second compound 1 µM) | IC50 (second compound 3.16 µM) | IC50 (second compound 10 µM)
